From BigSolDB 2.1

COc1ccc2c(c1)c(CC(=O)O)c(C)n2C(=O)c1ccc(Cl)cc1
Conditions | solubility (mole fraction)
in PEG-400, 293.15 K | 0.0751
in PEG-400, 298.15 K | 0.0831
in PEG-400, 303.15 K | 0.0923
in PEG-400, 308.15 K | 0.102
in PEG-400, 313.15 K | 0.114
in PEG-400, 318.15 K | 0.127

in water
Conditions | solubility (mole fraction)
293.15 K | 4.73e-08
298.15 K | 5e-08
303.15 K | 5.31e-08
308.15 K | 5.58e-08
313.15 K | 5.85e-08
318.15 K | 6.16e-08
